# System: pale smartweed (Po)
# Experiment: Test Example 6: crop plant selectivity by upland field soil treatment (soybean), herbicidal effects
# Assay type: in vivo
# Design: scale not given here
# Settings: dose 6.3 g ai/10a, 21st day after application
# Description: (§1) (Test on Crop Plant Selectivity by Upland Field Soil Treatment)
# (§2) In a plastic pot (surface area: 600 cm^2) filled with sand, soybean (Gl), Diaitaria ciliaris (Di), green foxtail (Se), Johnsongrass (So), pale smartweed (Po), slender amaranth (Am), common lambsquarters (Ch) and China jute (Ab) were sown and covered with soil. […] The plants were then cultured in a green house, and the evaluation of the herbicidal effects and phytotoxicity was conducted on the 21st day after the application in accordance with the standards as identified in Table 47. Symbol—represents “not tested”.
row,SMILES,Herbicidal effects Po
1,CCCOc1cc(-c2ccc(C(F)(F)F)n(C)c2=O)c(F)cc1Cl [1-154],5

# System: wheat (Tr)
# Experiment: Test Example 5: crop plant selectivity by upland field soil treatment (wheat), phytotoxicity
# Assay type: in vivo
# Design: scale not given here
# Settings: dose 1.6 g ai/10a, 21st day after application
# Description: as §1
# (§3) In a plastic pot (surface area: 600 cm^2) filled with sand, wheat (Tr), Diaitaria ciliaris (Di), green foxtail (Se), pale smartweed (Po), slender amaranth (Am), common lambsquarters (Ch) and China jute (Ab) were sown and covered with soil. […] The plants were then cultured in a green house, and the evaluation of the herbicidal effects and phytotoxicity was conducted on the 21st day after the application in accordance with the standards as identified in Table 47. Symbol—represents “not tested”.
row,SMILES,Phytotoxicity Tr
1,CCCOc1cc(-c2ccc(C(F)(F)F)n(C)c2=O)c(F)cc1Cl [1-154],1

# System: green foxtail (Se)
# Experiment: Test Example 4: crop plant selectivity by upland field soil treatment (cotton), herbicidal effects
# Assay type: in vivo
# Design: scale not given here
# Settings: dose 6.3 g ai/10 a, evaluated 21st day after application
# Description: as §1
# (§4) In a plastic pot (surface area: 600 cm^2) filled with sand, cotton (Go), Diaitaria ciliaris (Di), green foxtail (Se), pale smartweed (Po), slender amaranth (Am), common lambsquarters (Ch) and China jute (Ab) were sown and covered with soil. […] The plants were then cultured in a green house, and the evaluation of the herbicidal effects and phytotoxicity was conducted on the 21st day after the application in accordance with the standards as identified in Table 47. Symbol—represents “not tested”.
row,SMILES,Herbicidal effects Se
1,CCCOc1cc(-c2ccc(C(F)(F)F)n(C)c2=O)c(F)cc1Cl [1-154],5

# System: common lambsquarters (Ch)
# Experiment: as above
# Assay type: in vivo
# Design: scale not given here
# Settings: dose 6.3 g ai/10 a, evaluated 21st day after application
# Description: as §1, §4
row,SMILES,Herbicidal effects Ch
1,CCCOc1cc(-c2ccc(C(F)(F)F)n(C)c2=O)c(F)cc1Cl [1-154],5

# System: China jute (Ab)
# Experiment: as above
# Assay type: in vivo
# Design: scale not given here
# Settings: dose 6.3 g ai/10 a, evaluated 21st day after application
# Description: as §1, §4
row,SMILES,Herbicidal effects Ab
1,CCCOc1cc(-c2ccc(C(F)(F)F)n(C)c2=O)c(F)cc1Cl [1-154],5

# System: slender amaranth (Am)
# Experiment: as above
# Assay type: in vivo
# Design: scale not given here
# Settings: dose 6.3 g ai/10 a, evaluated 21st day after application
# Description: as §1, §4
row,SMILES,Herbicidal effects Am
1,CCCOc1cc(-c2ccc(C(F)(F)F)n(C)c2=O)c(F)cc1Cl [1-154],5

# System: pale smartweed (Po)
# Experiment: as above
# Assay type: in vivo
# Design: scale not given here
# Settings: dose 6.3 g ai/10 a, evaluated 21st day after application
# Description: as §1, §4
row,SMILES,Herbicidal effects Po
1,CCCOc1cc(-c2ccc(C(F)(F)F)n(C)c2=O)c(F)cc1Cl [1-154],5

# System: soybean (Gl)
# Experiment: Test Example 6: crop plant selectivity by upland field soil treatment (soybean), phytotoxicity
# Assay type: in vivo
# Design: scale not given here
# Settings: dose 6.3 g ai/10a, 21st day after application
# Description: as §1, §2
row,SMILES,Phytotoxicity Gl
1,CCCOc1cc(-c2ccc(C(F)(F)F)n(C)c2=O)c(F)cc1Cl [1-154],1

# System: common lambsquarters (Ch)
# Experiment: Test Example 3: herbicidal effects by upland field foliage treatment
# Assay type: in vivo
# Design: scale not given here
# Settings: 100 g of the active ingredient per 10 ares, evaluated on the 14th day after treatment
# Procedure, shortened: (§5)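 Weeds sown in sand-filled pots and grown 2 weeks in a greenhouse before foliage treatment. Plants then kept in the greenhouse; herbicidal effect scored on day 14 after treatment against a graded standard scale.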
row,SMILES,Herbicidal effects Ch
1,CCCOc1cc(-c2ccc(C(F)(F)F)n(C)c2=O)c(F)cc1Cl [1-154],5

# System: slender amaranth (Am)
# Experiment: as above
# Assay type: in vivo
# Design: scale not given here
# Settings: 100 g of the active ingredient per 10 ares, evaluated on the 14th day after treatment
# Procedure, shortened: as §5
row,SMILES,Herbicidal effects Am
1,CCCOc1cc(-c2ccc(C(F)(F)F)n(C)c2=O)c(F)cc1Cl [1-154],5

# System: Diaitaria ciliaris (Di)
# Experiment: as above
# Assay type: in vivo
# Design: scale not given here
# Settings: 100 g of the active ingredient per 10 ares, evaluated on the 14th day after treatment
# Procedure, shortened: as §5
row,SMILES,Herbicidal effects Di
1,CCCOc1cc(-c2ccc(C(F)(F)F)n(C)c2=O)c(F)cc1Cl [1-154],5

# System: rice flatsedge (Ci)
# Experiment: as above
# Assay type: in vivo
# Design: scale not given here
# Settings: 100 g of the active ingredient per 10 ares, evaluated on the 14th day after treatment
# Procedure, shortened: as §5
row,SMILES,Herbicidal effects Ci
1,CCCOc1cc(-c2ccc(C(F)(F)F)n(C)c2=O)c(F)cc1Cl [1-154],5

# System: pale smartweed (Po)
# Experiment: as above
# Assay type: in vivo
# Design: scale not given here
# Settings: 100 g of the active ingredient per 10 ares, evaluated on the 14th day after treatment
# Procedure, shortened: as §5
row,SMILES,Herbicidal effects Po
1,CCCOc1cc(-c2ccc(C(F)(F)F)n(C)c2=O)c(F)cc1Cl [1-154],5

# System: barnyardgrass (Ec)
# Experiment: as above
# Assay type: in vivo
# Design: scale not given here
# Settings: 100 g of the active ingredient per 10 ares, evaluated on the 14th day after treatment
# Procedure, shortened: as §5
row,SMILES,Herbicidal effects Ec
1,CCCOc1cc(-c2ccc(C(F)(F)F)n(C)c2=O)c(F)cc1Cl [1-154],5

# System: green foxtail (Se)
# Experiment: Test Example 5: crop plant selectivity by upland field soil treatment (wheat), herbicidal effects
# Assay type: in vivo
# Design: scale not given here
# Settings: dose 1.6 g ai/10a, 21st day after application
# Description: as §1, §3
row,SMILES,Herbicidal effects Se
1,CCCOc1cc(-c2ccc(C(F)(F)F)n(C)c2=O)c(F)cc1Cl [1-154],5

# System: common lambsquarters (Ch)
# Experiment: as above
# Assay type: in vivo
# Design: scale not given here
# Settings: dose 1.6 g ai/10a, 21st day after application
# Description: as §1, §3
row,SMILES,Herbicidal effects Ch
1,CCCOc1cc(-c2ccc(C(F)(F)F)n(C)c2=O)c(F)cc1Cl [1-154],5

# System: slender amaranth (Am)
# Experiment: as above
# Assay type: in vivo
# Design: scale not given here
# Settings: dose 1.6 g ai/10a, 21st day after application
# Description: as §1, §3
row,SMILES,Herbicidal effects Am
1,CCCOc1cc(-c2ccc(C(F)(F)F)n(C)c2=O)c(F)cc1Cl [1-154],5

# System: pale smartweed (Po)
# Experiment: as above
# Assay type: in vivo
# Design: scale not given here
# Settings: dose 1.6 g ai/10a, 21st day after application
# Description: as §1, §3
row,SMILES,Herbicidal effects Po
1,CCCOc1cc(-c2ccc(C(F)(F)F)n(C)c2=O)c(F)cc1Cl [1-154],5

# System: cotton (Go)
# Experiment: Test Example 4: crop plant selectivity by upland field soil treatment (cotton), phytotoxicity
# Assay type: in vivo
# Design: scale not given here
# Settings: dose 6.3 g ai/10 a, evaluated 21st day after application
# Description: as §1, §4
row,SMILES,Phytotoxicity Go
1,CCCOc1cc(-c2ccc(C(F)(F)F)n(C)c2=O)c(F)cc1Cl [1-154],0
